Assay results taken from patent publication US4619925A, “3-Propenyl cephalosporin derivatives” (priority 1985, dated 1986).
Values after ≈ are worked out from the molar mass of the structure shown. Read-outs that look alike come from different tables or passages of the source.

Legend:
[1] = tested on: Gn-Ia organisms (Gram-negative bacteria sensitive to ampicillin and cephalothin); test: In vitro activity, agar dilution, group of five strains; type: cell-based
Text: (§1) Each of these groups of organisms is constituted of five individual strains of microorganism. The Gp-Ia organisms are Gram-positive staphylococci which are sensitive to penicillin. The Gp-Ib organisms are Gram-positive staphylococci which are resistant to penicillin and produce penicillinase. The Gn-Ia organisms are Gram-negative bacteria which are sensitive to ampicillin and cephalothin. The Gn-Ib organisms are Gram-negative bacteria which are resistant to ampicillin and cephalothin.

Mouse blood levels = test: Mouse blood levels
Text: Table 3 contains comparative blood level data for mice treated orally and intramuscularly with the hydroxyphenylglycyl derivatives.

fastidious bacteria = test: In vitro antibacterial activity against fastidious bacteria (overall); type: cell-based
Text: Table 5 contains comparative data for in vitro antibacterial activity against fastidious bacteria.

Mouse urinary recovery = type: in vivo, mice; conditions: 20 mg/kg
K. pneumoniae D11 = test: MIC, agar dilution technique (Mueller-Hinton Agar); type: cell-based; conditions: Klebsiella pneumoniae; K. pneumoniae D11; Gn-Ia, ampicillin and cephalothin sensitive; read-out: Minimum Inhibitory Concentration
Text: as §1

K. pneumoniae A20346 = test: MIC, agar dilution technique (Mueller-Hinton Agar); type: cell-based; conditions: Klebsiella pneumoniae; K. pneumoniae A20346; Gn-Ib, ampicillin and cephalothin resistant; read-out: Minimum Inhibitory Concentration
Text: as §1

P. mirabilis A9900 = test: MIC, agar dilution technique (Mueller-Hinton Agar); type: cell-based; conditions: Proteus mirabilis; P. mirabilis A9900; Gn-Ia, ampicillin and cephalothin sensitive; read-out: Minimum Inhibitory Concentration
Text: as §1

S. aureus A9497 = test: MIC, agar dilution technique (Mueller-Hinton Agar); type: cell-based; conditions: Staphylococcus aureus, Gp-Ia, penicillin sensitive, read-out: Minimum Inhibitory Concentration
Text: as §1

E. coli Juhl = test: MIC, agar dilution technique (Mueller-Hinton Agar); type: cell-based; conditions: Escherichia coli; E. coli Juhl; Gn-Ia, ampicillin and cephalothin sensitive; read-out: Minimum Inhibitory Concentration
Text: as §1

S. aureus BX-1633-2 = test: MIC, agar dilution technique (Mueller-Hinton Agar); type: cell-based; conditions: Staphylococcus aureus, BX16332, read-out: Minimum Inhibitory Concentration
Text: as §1

E coli RGN-823 = test: MIC, agar dilution technique (Mueller-Hinton Agar); type: cell-based; conditions: Escherichia coli, RGN823, Gn-Ib, ampicillin and cephalothin resistant, read-out: Minimum Inhibitory Concentration
Text: as §1

E. coli A20341-1 = test: MIC, agar dilution technique (Mueller-Hinton Agar); type: cell-based; conditions: Escherichia coli, A203411; E. coli A20341-1; Gn-Ib, ampicillin and cephalothin resistant; read-out: Minimum Inhibitory Concentration
Text: as §1

S. aureus A9601 = test: MIC, agar dilution technique (Mueller-Hinton Agar); type: cell-based; conditions: Staphylococcus aureus; S. aureus A9601; Gp-Ia, penicillin sensitive; read-out: Minimum Inhibitory Concentration
Text: as §1

S. aureus Russell = test: MIC, agar dilution technique (Mueller-Hinton Agar); type: cell-based; conditions: Staphylococcus aureus, read-out: Minimum Inhibitory Concentration
Text: as §1

S. aureus A15092 = test: MIC, agar dilution technique (Mueller-Hinton Agar); type: cell-based; conditions: Staphylococcus aureus, Gp-Ib, penicillin resistant, read-out: Minimum Inhibitory Concentration
Text: as §1

S. aureus A9602 = test: MIC, agar dilution technique (Mueller-Hinton Agar); type: cell-based; conditions: Staphylococcus aureus; S. aureus A9602; Gp-Ib, penicillin resistant; read-out: Minimum Inhibitory Concentration
Text: as §1

S. aureus Terajima = test: MIC, agar dilution technique (Mueller-Hinton Agar); type: cell-based; conditions: Staphylococcus aureus, Gp-Ia, penicillin sensitive, read-out: Minimum Inhibitory Concentration
Text: as §1

K. pneumoniae A20345 = test: MIC, agar dilution technique (Mueller-Hinton Agar); type: cell-based; conditions: Klebsiella pneumoniae, Gn-Ib, ampicillin and cephalothin resistant, read-out: Minimum Inhibitory Concentration
Text: as §1

E. coli A15148 = test: MIC, agar dilution technique (Mueller-Hinton Agar); type: cell-based; conditions: Escherichia coli; E. coli A15148; Gn-Ib, ampicillin and cephalothin resistant; read-out: Minimum Inhibitory Concentration
Text: as §1

S. aureus Smith = test: MIC, agar dilution technique (Mueller-Hinton Agar); type: cell-based; conditions: Staphylococcus aureus, Gp-Ia, penicillin sensitive, read-out: Minimum Inhibitory Concentration
Text: as §1

S. aureus A9534 = test: MIC, agar dilution technique (Mueller-Hinton Agar); type: cell-based; conditions: Staphylococcus aureus, Gp-Ia, penicillin sensitive, read-out: Minimum Inhibitory Concentration
Text: as §1

P. mirabilis A9554 = test: MIC, agar dilution technique (Mueller-Hinton Agar); type: cell-based; conditions: Proteus mirabilis; P. mirabilis A9554; Gn-Ia, ampicillin and cephalothin sensitive; read-out: Minimum Inhibitory Concentration
Text: as §1

S. aureus No. 193 = test: MIC, agar dilution technique (Mueller-Hinton Agar); type: cell-based; conditions: Staphylococcus aureus, Gp-Ib, penicillin resistant, read-out: Minimum Inhibitory Concentration
Text: as §1

E. coli A9660 = test: MIC, agar dilution technique (Mueller-Hinton Agar); type: cell-based; conditions: Escherichia coli; E. coli A9660; Gn-Ia, ampicillin and cephalothin sensitive; read-out: Minimum Inhibitory Concentration
Text: as §1

C/C=C\C1=C(C(=O)O)N2C(=O)C(NC(=O)[C@H](N)c3cccc(O)c3)[C@H]2SC1 (some centres unmarked) [BMY-28272, 7-[(D)-2-amino-2-(3-hydroxyphenyl)acetamido]-3-[(Z)-1-propenyl]-3-cephem-4-carboxylic acid]
activity relative to cephalexin and cefaclor [1]: more active than cephalexin and slightly better than cefaclor | AUC relative to BMY-28100 (Mouse blood levels; 20 mg/kg intramuscularly): greater AUC value | T1/2 relative to BMY-28100 (Mouse blood levels; 20 mg/kg intramuscularly): longer T1/2 than BMY-28100 | AUC relative to BMY-28100 (Mouse blood levels; 100 mg/kg orally): greater AUC value | T1/2 relative to BMY-28100 (Mouse blood levels; 100 mg/kg orally): somewhat shorter T1/2 than BMY-28100 | duration of blood levels relative to BMY-28100 (Mouse blood levels; 100 mg/kg orally): longer duration of blood levels | antibiotic concentrations in the bloodstream (Mouse blood levels; following oral administration, summary statement): prolonged antibiotic concentrations in the bloodstream following oral administration | concentration at 10 min (Mouse blood levels; mouse, blood, im, 20 mg/kg): 20000 ng/mL | concentration at 20 min (Mouse blood levels; mouse, blood, im, 20 mg/kg): 17000 ng/mL | concentration at 0.5 h (Mouse blood levels; mouse, blood, im, 20 mg/kg): 17000 ng/mL | concentration at 40 min (Mouse blood levels; mouse, blood, im, 20 mg/kg): 12000 ng/mL | concentration at 50 min (Mouse blood levels; mouse, blood, im, 20 mg/kg): 11000 ng/mL | concentration at 1 h (Mouse blood levels; mouse, blood, im, 20 mg/kg): 9400 ng/mL | concentration at 1.5 h (Mouse blood levels; mouse, blood, im, 20 mg/kg): 4800 ng/mL | concentration at 2 h (Mouse blood levels; mouse, blood, im, 20 mg/kg): 2600 ng/mL | AUC (Mouse blood levels; mouse, blood, im, 20 mg/kg, 20 mg/kg i.m.): 20000 ng·h/mL | half-life (Mouse blood levels; mouse, blood, im, 20 mg/kg, T 1/2, 20 mg/kg i.m.): 36 min | Cmax (Mouse blood levels; mouse, blood, po, 20 mg/kg): 9600 ng/mL | concentration at 0.5 h (Mouse blood levels; mouse, blood, po, 20 mg/kg): 7700 ng/mL | concentration at 1 h (Mouse blood levels; mouse, blood, po, 20 mg/kg): 4200 ng/mL | concentration at 2 h (Mouse blood levels; mouse, blood, po, 20 mg/kg): 1600 ng/mL | concentration at 3 h (Mouse blood levels; mouse, blood, po, 20 mg/kg): 620 ng/mL | concentration at 4 h (Mouse blood levels; mouse, blood, po, 20 mg/kg): 220 ng/mL | concentration at 5 h (Mouse blood levels; mouse, blood, po, 20 mg/kg): 130 ng/mL | concentration at 6 h (Mouse blood levels; mouse, blood, po, 20 mg/kg): 82 ng/mL | AUC (Mouse blood levels; mouse, blood, po, 20 mg/kg, 20 mg/kg p.o.): 9700 ng·h/mL | AUC (Mouse blood levels; mouse, blood, po, 20 mg/kg, 20 mg/kg p.o., another experiment (footnote)): 17000 ng·h/mL | half-life (Mouse blood levels; mouse, blood, po, 20 mg/kg, T 1/2, 20 mg/kg p.o.): 51.6 min | half-life (Mouse blood levels; mouse, blood, po, 20 mg/kg, T 1/2, 20 mg/kg p.o., another experiment (footnote)): 60 min | concentration at 0.5 h (Mouse blood levels; mouse, blood, po, 100 mg/kg): 23000 ng/mL | concentration at 1 h (Mouse blood levels; mouse, blood, po, 100 mg/kg): 22000 ng/mL | concentration at 2 h (Mouse blood levels; mouse, blood, po, 100 mg/kg): 16000 ng/mL | concentration at 3 h (Mouse blood levels; mouse, blood, po, 100 mg/kg): 10000 ng/mL | concentration at 4 h (Mouse blood levels; mouse, blood, po, 100 mg/kg): 6300 ng/mL | concentration at 5 h (Mouse blood levels; mouse, blood, po, 100 mg/kg): 3100 ng/mL | concentration at 6 h (Mouse blood levels; mouse, blood, po, 100 mg/kg): 2800 ng/mL | concentration at 7 h (Mouse blood levels; mouse, blood, po, 100 mg/kg): 2500 ng/mL | AUC (Mouse blood levels; mouse, blood, po, 100 mg/kg, 100 mg/kg p.o.): 71000 ng·h/mL | half-life (Mouse blood levels; mouse, blood, po, 100 mg/kg, T 1/2, 100 mg/kg p.o.): 102 min | activity relative to BMY-28100 (fastidious bacteria): almost comparable or better than BMY-28100 | activity relative to cefaclor or cephalexin (fastidious bacteria): much better than cefaclor or cephalexin | total recovery ratio relative to BMY-28100 and cefaclor (Mouse urinary recovery; p.o.): smaller than those of BMY-28100 and cefaclor | rate of excretion relative to BMY-28100 and cefaclor (Mouse urinary recovery; p.o., from the 6-24 hours period): slower than BMY-28100 and cefaclor | dose excreted at 2 h (Mouse urinary recovery; mouse, urine, po, 0-2 hr): 37% | dose excreted at 4 h (Mouse urinary recovery; mouse, urine, po, 2-4 hr): 4.4% | dose excreted at 6 h (Mouse urinary recovery; mouse, urine, po, 4-6 hr): 0.4% | dose excreted at 24 h (Mouse urinary recovery; mouse, urine, po, p.o., 6-24 hr, read-out: Mouse urinary recovery 6-24 hr): 8.7% | dose excreted at 24 h (Mouse urinary recovery; mouse, urine, po, p.o., total, read-out: Mouse urinary recovery Total): 51% | MIC (K. pneumoniae D11): 0.8 µg/mL (≈ 2.05 µM) | MIC (K. pneumoniae A20346): 50 µg/mL (≈ 128 µM) | MIC (P. mirabilis A9900): 0.8 µg/mL (≈ 2.05 µM) | MIC (S. aureus A9497): 0.4 µg/mL (≈ 1.03 µM) | MIC (E. coli Juhl): 1.6 µg/mL (≈ 4.11 µM) | MIC (S. aureus BX-1633-2): 1.6 µg/mL (≈ 4.11 µM) | MIC (E coli RGN-823): 50 µg/mL (≈ 128 µM) | MIC (E. coli A20341-1): 12.5 µg/mL (≈ 32.1 µM) | MIC (S. aureus A9601): 0.8 µg/mL (≈ 2.05 µM) | MIC (S. aureus Russell): 1.6 µg/mL (≈ 4.11 µM) | MIC (S. aureus A15092): 1.6 µg/mL (≈ 4.11 µM) | MIC (S. aureus A9602): 0.8 µg/mL (≈ 2.05 µM) | MIC (S. aureus Terajima): 0.4 µg/mL (≈ 1.03 µM) | MIC (K. pneumoniae A20345): 6.3 µg/mL (≈ 16.2 µM) | MIC (E. coli A15148): 25 µg/mL (≈ 64.2 µM) | MIC (S. aureus Smith): 0.4 µg/mL (≈ 1.03 µM) | MIC (S. aureus A9534): 0.4 µg/mL (≈ 1.03 µM) | MIC (P. mirabilis A9554): 0.8 µg/mL (≈ 2.05 µM) | MIC (S. aureus No. 193): 1.6 µg/mL (≈ 4.11 µM) | MIC (E. coli A9660): 0.8 µg/mL (≈ 2.05 µM)
